Key:
MDA-MB-231 [1] = assay: Antiproliferative activity against human MDA-MB-231 cells assessed as cell viability incubated for 48 hrs measured after additional incubation with MTT; format: functional, cell-based; details: MDA-MB-231, 48 h
MDA-MB-468 [2] = assay: Antiproliferative activity against human MDA-MB-468 cells assessed as cell viability incubated for 48 hrs measured after additional incubation with MTT; format: functional, cell-based; details: MDA-MB-468, 48 h
[3] = Antiproliferative activity against human MCF-10A cells assessed as cell viability incubated for 48 hrs measured after additional incubation with MTT; format: toxicity, cell-based
L02 = assay: Antiproliferative activity against human L02 cells assessed as cell viability incubated for 48 hrs measured after additional incubation with MTT; format: functional, cell-based; details: L02, 48 h
MDA-MB-231 [4] = assay: Induction of apoptosis in human MDA-MB-231 cells assessed as early apoptotic cells at 2.5 uM measured after 24 hrs incubation by the annexin V/propidium iodide (PI) double staining assay (reference value: 2.46%); format: functional
MDA-MB-231 [5] = assay: Induction of apoptosis in human MDA-MB-231 cells assessed as late apoptotic cells at 2.5 uM measured after 24 hrs incubation by the annexin V/propidium iodide (PI) double staining assay (reference value: 2.69%); format: functional
MDA-MB-231 [6] = assay: Induction of apoptosis in human MDA-MB-231 cells assessed as early apoptotic cells at 5 uM measured after 24 hrs incubation by the annexin V/propidium iodide (PI) double staining assay (reference value: 2.46%); format: functional
MDA-MB-231 [7] = assay: Induction of apoptosis in human MDA-MB-231 cells assessed as late apoptotic cells at 5 uM measured after 24 hrs incubation by the annexin V/propidium iodide (PI) double staining assay (reference value: 2.69%); format: functional
MDA-MB-468 [8] = assay: Induction of apoptosis in human MDA-MB-468 cells assessed as early apoptotic cells at 2.5 uM measured after 24 hrs incubation by the annexin V/propidium iodide (PI) double staining assay (reference value: 3.98%); format: functional
MDA-MB-468 [9] = assay: Induction of apoptosis in human MDA-MB-468 cells assessed as late apoptotic cells at 2.5 uM measured after 24 hrs incubation by the annexin V/propidium iodide (PI) double staining assay (reference value: 3.64%); format: functional
MDA-MB-468 [10] = assay: Induction of apoptosis in human MDA-MB-468 cells assessed as early apoptotic cells at 5 uM measured after 24 hrs incubation by the annexin V/propidium iodide (PI) double staining assay (reference value: 3.98%); format: functional
MDA-MB-468 [11] = assay: Induction of apoptosis in human MDA-MB-468 cells assessed as late apoptotic cells at 5 uM measured after 24 hrs incubation by the annexin V/propidium iodide (PI) double staining assay (reference value: 3.64%); format: functional
MDA-MB-231 [12] = assay: Induction of apoptosis in human MDA-MB-231 cells assessed as early apoptotic cells at 5 uM measured after 24 hrs incubation by the annexin V/propidium iodide (PI) double staining assay (reference value: 2.37%); format: functional
MDA-MB-231 [13] = assay: Induction of apoptosis in human MDA-MB-231 cells assessed as late apoptotic cells at 5 uM measured after 24 hrs incubation by the annexin V/propidium iodide (PI) double staining assay (reference value: 3.08%); format: functional
MDA-MB-231 [14] = assay: Induction of apoptosis in human MDA-MB-231 cells assessed as early apoptotic cells pretreated with Z-VAD-FMK at 5 uM measured after 24 hrs incubation by the annexin V/propidium iodide (PI) double staining assay (reference value: 2.37%); format: functional
MDA-MB-231 [15] = assay: Induction of apoptosis in human MDA-MB-231 cells assessed as late apoptotic cells pretreated with Z-VAD-FMK at 5 uM measured after 24 hrs incubation by the annexin V/propidium iodide (PI) double staining assay (reference value: 3.08%); format: functional
MDA-MB-468 [16] = assay: Induction of apoptosis in human MDA-MB-468 cells assessed as early apoptotic cells at 5 uM measured after 24 hrs incubation by the annexin V/propidium iodide (PI) double staining assay (reference value: 2.36%); format: functional
MDA-MB-468 [17] = assay: Induction of apoptosis in human MDA-MB-468 cells assessed as late apoptotic cells at 5 uM measured after 24 hrs incubation by the annexin V/propidium iodide (PI) double staining assay (reference value: 4.33%); format: functional
MDA-MB-468 [18] = assay: Induction of apoptosis in human MDA-MB-468 cells assessed as early apoptotic cells pretreated with Z-VAD-FMK at 5 uM measured after 24 hrs incubation by the annexin V/propidium iodide (PI) double staining assay (reference value: 2.36%); format: functional
MDA-MB-468 [19] = assay: Induction of apoptosis in human MDA-MB-468 cells assessed as late apoptotic cells pretreated with Z-VAD-FMK at 5 uM measured after 24 hrs incubation by the annexin V/propidium iodide (PI) double staining assay (reference value: 4.33%); format: functional
[20] = Half life in male rat at 10 mg/kg, po measured upto 24 hrs by LC/MS/MS analysis; format: ADME, organism-based; details: in vivo
[21] = Half life in male rat at 10 mg/kg, ip measured upto 24 hrs by LC/MS/MS analysis; format: ADME, organism-based; details: in vivo
[22] = Half life in male rat at 5 mg/kg, iv measured upto 24 hrs by LC/MS/MS analysis; format: ADME, organism-based; details: in vivo
[23] = AUC(0 to t) in male rat at 10 mg/kg, po measured upto 24 hrs by LC/MS/MS analysis; format: ADME, organism-based; details: in vivo
[24] = AUC(0 to t) in male rat at 10 mg/kg, ip measured upto 24 hrs by LC/MS/MS analysis; format: ADME, organism-based; details: in vivo
[25] = AUC(0 to t) in male rat at 5 mg/kg, iv measured upto 24 hrs by LC/MS/MS analysis; format: ADME, organism-based; details: in vivo
[26] = AUC(0 to infinity) in male rat at 10 mg/kg, po measured upto 24 hrs by LC/MS/MS analysis; format: ADME, organism-based; details: in vivo
[27] = AUC(0 to infinity) in male rat at 10 mg/kg, ip measured upto 24 hrs by LC/MS/MS analysis; format: ADME, organism-based; details: in vivo
[28] = AUC(0 to infinity) in male rat at 5 mg/kg, iv measured upto 24 hrs by LC/MS/MS analysis; format: ADME, organism-based; details: in vivo
[29] = Cmax in male rat at 10 mg/kg, po measured upto 24 hrs by LC/MS/MS analysis; format: ADME, organism-based; details: in vivo
[30] = Cmax in male rat at 10 mg/kg, ip measured upto 24 hrs by LC/MS/MS analysis; format: ADME, organism-based; details: in vivo
[31] = Cmax in male rat at 5 mg/kg, iv measured upto 24 hrs by LC/MS/MS analysis; format: ADME, organism-based; details: in vivo
[32] = Tmax in male rat at 10 mg/kg, po measured upto 24 hrs by LC/MS/MS analysis; format: ADME, organism-based; details: in vivo
[33] = Tmax in male rat at 10 mg/kg, ip measured upto 24 hrs by LC/MS/MS analysis; format: ADME, organism-based; details: in vivo
[34] = Tmax in male rat at 5 mg/kg, iv measured upto 24 hrs by LC/MS/MS analysis; format: ADME, organism-based; details: in vivo
[35] = Oral bioavailability in male rat at 10 mg/kg measured upto 24 hrs by LC/MS/MS analysis; format: ADME, organism-based; details: in vivo
MDA-MB-231 [36] = assay: In vivo antitumor activity against human MDA-MB-231 cells assessed as tumor growth inhibition at 15 mg/kg, ip once daily for 21 consecutive days relative to control; format: functional; details: MDA-MB-231, 504 h, time 21 day, read-out: TGI
MDA-MB-231 [37] = assay: In vivo antitumor activity against human MDA-MB-231 cells assessed as tumor growth inhibition at 30 mg/kg, ip once daily for 21 consecutive days relative to control; format: functional; details: MDA-MB-231, 504 h, time 21 day, read-out: TGI
[38] = Toxicity in female BALB/c-nude mouse assessed as histological change in heart at 15 to 30 mg/kg, ip once daily for 21 consecutive days by H and E staining based IHC analysis; format: organism-based; details: in vivo, 504 h, dose 15-30 mg/kg, time 21 day
[39] = Toxicity in female BALB/c-nude mouse assessed as histological change in liver at 15 to 30 mg/kg, ip once daily for 21 consecutive days by H and E staining based IHC analysis; format: organism-based; details: in vivo, 504 h, dose 15-30 mg/kg, time 21 day
[40] = Toxicity in female BALB/c-nude mouse assessed as histological change in spleen at 15 to 30 mg/kg, ip once daily for 21 consecutive days by H and E staining based IHC analysis; format: organism-based; details: in vivo, 504 h, dose 15-30 mg/kg, time 21 day
[41] = Toxicity in female BALB/c-nude mouse assessed as histological change in lung at 15 to 30 mg/kg, ip once daily for 21 consecutive days by H and E staining based IHC analysis; format: organism-based; details: in vivo, 504 h, dose 15-30 mg/kg, time 21 day
[42] = Toxicity in female BALB/c-nude mouse assessed as histological change in kidney at 15 to 30 mg/kg, ip once daily for 21 consecutive days by H and E staining based IHC analysis; format: organism-based; details: in vivo, 504 h, dose 15-30 mg/kg, time 21 day

## CC(C)C[C@@H](CO)N1CCc2c(oc3c2C(=O)C(=O)c2ccccc2-3)C1
MDA-MB-231 [1]
  IC50: 2050 nM
MDA-MB-468 [2]
  IC50: 7.54 µM
[3]
  IC50 at 48 h: > 20 µM
L02
  IC50: > 20 µM
MDA-MB-231 [4]
  Activity: 3.35%
MDA-MB-231 [5]
  Activity: 3.48%
MDA-MB-231 [6]
  Activity: 5.86%
MDA-MB-231 [7]
  Activity: 29.24%
MDA-MB-468 [8]
  Activity: 3.86%
MDA-MB-468 [9]
  Activity: 4.6%
MDA-MB-468 [10]
  Activity: 16.47%
MDA-MB-468 [11]
  Activity: 19.37%
MDA-MB-231 [12]
  Activity: 3.97%
MDA-MB-231 [13]
  Activity: 25.51%
MDA-MB-231 [14]
  Activity: 4.68%
MDA-MB-231 [15]
  Activity: 13.57%
MDA-MB-468 [16]
  Activity: 22.31%
MDA-MB-468 [17]
  Activity: 17.13%
MDA-MB-468 [18]
  Activity: 11.06%
MDA-MB-468 [19]
  Activity: 15.38%
[20]
  half-life: 426 min
[21]
  half-life: 474 min
[22]
  half-life: 474 min
[23]
  AUC(0-t) at 24 h: 55.1 ng·h/mL
[24]
  AUC(0-t) at 24 h: 436 ng·h/mL
[25]
  AUC(0-t) at 24 h: 536 ng·h/mL
[26]
  AUC(0-inf): 56.7 ng·h/mL
[27]
  AUC(0-inf): 490 ng·h/mL
[28]
  AUC(0-inf): 618 ng·h/mL
[29]
  Cmax: 67.8 ng/mL
[30]
  Cmax: 232 ng/mL
[31]
  Cmax: 348 ng/mL
[32]
  Tmax: 12 min
[33]
  Tmax: 6 min
[34]
  Tmax: 4.2 min
[35]
  bioavailability: 5.1%
MDA-MB-231 [36]
  inhibition in vivo at 15 mg/kg: 42.2%
MDA-MB-231 [37]
  inhibition in vivo at 30 mg/kg: 60.4%
[38]
  Activity: Non-Toxic
[39]
  Activity: Non-Toxic
[40]
  Activity: Non-Toxic
[41]
  Activity: Non-Toxic
[42]
  Activity: Non-Toxic
